Assay results reported in patent US8343539B2, “Compounds that bind α5β1 integrin and methods of use” (Regents of the University of Minnesota, priority 2006, dated 2013).
“Also recorded” adds a separate entry of the source. Where no end group is shown, it is not given here. (C16)2 = not defined here

What was measured:
integrin α5β1 = molecular target: T1, integrin α5β1 (Homo sapiens, UniProt P05556+P08648); test: Adhesion blocking with anti-integrin α5β1 antibody (JBS5); assay type: cell-based; conditions: 1 hour
T1 construct: endogenous in cells; host or cells: HUVEC (human umbilical vein endothelial cells)
T1 sequence (P08648 42-894 limits assumed): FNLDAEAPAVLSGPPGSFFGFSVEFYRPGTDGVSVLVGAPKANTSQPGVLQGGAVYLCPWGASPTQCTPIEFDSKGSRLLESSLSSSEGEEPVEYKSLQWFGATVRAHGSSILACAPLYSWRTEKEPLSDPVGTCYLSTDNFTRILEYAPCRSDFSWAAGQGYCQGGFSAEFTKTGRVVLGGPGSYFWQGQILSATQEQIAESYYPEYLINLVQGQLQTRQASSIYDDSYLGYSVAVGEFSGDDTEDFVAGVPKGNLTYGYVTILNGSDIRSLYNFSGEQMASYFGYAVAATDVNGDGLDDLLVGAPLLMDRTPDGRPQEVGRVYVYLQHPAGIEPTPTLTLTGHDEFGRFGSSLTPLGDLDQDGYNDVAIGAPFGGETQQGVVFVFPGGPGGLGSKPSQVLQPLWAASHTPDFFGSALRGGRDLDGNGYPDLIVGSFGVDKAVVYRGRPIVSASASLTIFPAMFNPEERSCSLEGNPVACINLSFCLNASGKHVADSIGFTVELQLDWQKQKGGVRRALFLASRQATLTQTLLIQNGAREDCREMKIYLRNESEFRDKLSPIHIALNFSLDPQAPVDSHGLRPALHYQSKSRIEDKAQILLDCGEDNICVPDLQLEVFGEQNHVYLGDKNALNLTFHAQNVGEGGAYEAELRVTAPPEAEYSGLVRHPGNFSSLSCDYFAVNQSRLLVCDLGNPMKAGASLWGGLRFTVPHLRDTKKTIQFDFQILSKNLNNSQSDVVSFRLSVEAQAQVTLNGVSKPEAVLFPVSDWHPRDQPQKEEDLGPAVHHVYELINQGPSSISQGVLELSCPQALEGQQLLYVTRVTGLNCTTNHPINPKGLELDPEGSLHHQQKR
T1 sequence (P08648 895-1049 partner limits assumed): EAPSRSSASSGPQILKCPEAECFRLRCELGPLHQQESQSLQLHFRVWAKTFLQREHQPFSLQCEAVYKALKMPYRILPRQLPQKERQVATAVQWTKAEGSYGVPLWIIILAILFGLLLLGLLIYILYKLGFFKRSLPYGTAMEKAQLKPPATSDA
T1 sequence (P05556 21-798): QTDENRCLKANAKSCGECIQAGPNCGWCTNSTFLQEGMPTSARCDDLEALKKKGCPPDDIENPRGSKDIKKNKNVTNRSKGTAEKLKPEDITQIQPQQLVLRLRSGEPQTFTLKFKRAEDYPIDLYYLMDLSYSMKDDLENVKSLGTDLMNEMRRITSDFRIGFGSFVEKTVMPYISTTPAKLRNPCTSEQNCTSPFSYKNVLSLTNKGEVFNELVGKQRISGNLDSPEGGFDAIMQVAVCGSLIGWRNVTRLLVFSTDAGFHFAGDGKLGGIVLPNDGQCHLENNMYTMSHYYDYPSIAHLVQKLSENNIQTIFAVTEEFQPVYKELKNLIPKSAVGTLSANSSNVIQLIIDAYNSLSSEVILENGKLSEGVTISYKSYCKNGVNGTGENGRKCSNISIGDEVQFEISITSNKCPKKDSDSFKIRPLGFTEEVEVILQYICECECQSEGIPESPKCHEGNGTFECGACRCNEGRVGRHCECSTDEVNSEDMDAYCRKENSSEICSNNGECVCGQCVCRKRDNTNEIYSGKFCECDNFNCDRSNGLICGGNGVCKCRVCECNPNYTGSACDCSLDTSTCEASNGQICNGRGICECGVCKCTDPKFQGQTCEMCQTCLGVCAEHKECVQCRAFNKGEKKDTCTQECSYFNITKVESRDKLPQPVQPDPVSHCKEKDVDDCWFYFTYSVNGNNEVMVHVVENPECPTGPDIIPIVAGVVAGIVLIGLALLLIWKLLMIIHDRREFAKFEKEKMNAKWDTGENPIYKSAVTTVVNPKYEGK
Method: Adhesion blocking experiments: Blocking experiments were done using mouse anti-human integrin […] (P1D6), β1 (P5D2), α5β1 (JBS5), and αvβ3 (LM609) monoclonal antibodies (Chemicon Int.). All surfaces were transferred to 24- or 12-well plates and pre-incubated in 0.1% BSA media as described above. HUVECs were prepared and counted as described in the cell adhesion protocol. Cells were blocked by mixing the cell suspension with the appropriate antibody in 0.1% BSA media, and incubating for 30 minutes at 37° C., 5% CO2 with constant agitation. Blocked cells were then released onto LB and FN surfaces and allowed to adhere for 1 hour at 37° C., 5% CO2. For all blocking experiments, cells were seeded at 249 cells/mm^2 (lower seeding density was used here to reduce the amount of antibodies needed to block cell adhesion) and a final antibody concentration in each well was 20 μg/ml. Following incubation, surfaces were washed, and adhered cells were quantified as described in the cell adhesion protocol.

HUVECs [1] = test: HUVEC adhesion timed experiments on LB membranes (Example 2); assay type: cell-based, human
Method: Surface preparation: Each peptide-amphiphile was used to form homogenous LB membranes as in previous work (Kokkoli Langmuir 2004; 20:2397-2404), except that both the water and 15 mm mica disks used had been autoclaved for sterility. All depositions were done at a surface pressure between 41 and 47 mN/m, well below the collapse pressure and in the liquid-condensed or solid phase. Approximately 90 minutes before cells were seeded on the LB films to begin cell adhesion experiments, mica surfaces were transferred into 1× phosphate buffered saline (PBS), with particular care taken to ensure films were not exposed to air. After 5-10 minutes of equilibration, surfaces were transferred into 24-well plates containing a supplemented MCDB-131 basal media (Sigma), as described in Example 1. Following surface transfer, 24-well plates were moved to a 37° C., 5% CO2 incubator for 45-60 minutes. As a control, 22 mm diameter human fibronectin-coated coverslips (BD Biosciences), referred to as FN, were put into 12-well plates, covered with 2 ml of the supplemented media, and also incubated for 45-60 minutes.
Cell culture: Human umbilical vein endothelial cells, HUVECs (Cambrex Corporation), were cultured as described previously (see Example 1). Only cells from passage 3 were used in all studies.
Cell adhesion experiments: Flasks of HUVECs with at least 90% confluency were washed with 1×PBS, trypsinized with 0.25% Trypsin-EDTA (Fisher Scientific), and neutralized with 2% fetal bovine serum in MCDB-131 basal media. The suspended cells from all flasks were placed in one 50 ml centrifuge tube and centrifuged at 1000 rpm for 5 minutes. The media was removed and the cell pellet was resuspended in the supplemented media described above. A hemocytometer was used to count the cells and then 497 cells/mm^2 were seeded onto both LB and FN surfaces. Surfaces were incubated with cells at 37° C., 5% CO2 for 1, 4, or 12 hours. Cell adhesion following these times was determined using the CyQuant cell proliferation assay kit (Molecular Probes), which measures the fluorescence of a cellular nucleic acid-binding dye using the SpectraMAX GeminiXS plate reader (Molecular Devices). Standard calibration curves were created within each experiment for both 12- and 24-well plates.

HUVECs [2] = test: Fibronectin production staining (Example 2); assay type: cell-based, human; conditions: 12 hours
Method: Fibronectin production staining: Surface preparation, transfer, and cellular work were all done as described in the previous methods. Only surfaces incubated with cells for 12 hours were stained. The staining protocol, involving a primary antibody for secreted fibronectin (Chemicon), a FITC-conjugated secondary antibody (Chemicon), and the Image-iT LIVE plasma membrane and nuclear labeling kit (Molecular Probes), was done as previously described in Example 1. A single photon confocal microscope (Olympus FluoView FV1000) was used for imaging. Two slides per substrate were prepared each during 2 separate experiments and each slide was imaged 2-4 times. The final images chosen were all taken from one experiment for consistency, but were representative of the images obtained from both experiments.

HUVECs [3] = test: HUVEC adhesion on LB membranes of peptide-amphiphiles (Example 1); assay type: cell-based, human; conditions: no serum; for HUVEC adhesion compared to FN: seeded 497 cells/mm^2
Description: Surface preparation: Peptide-amphiphiles, listed in Table 1, were synthesized as described in the literature (Berndt et al., J. Am. Chem. Soc., 1995; 117:9515-9522). Langmuir-Blodgett (LB) membranes constructed from peptide-amphiphiles were deposited onto 15 mm mica disks as described elsewhere (Kokkoli et al., Langmuir, 2004; 20:2397-2404). Shortly before cell assays, the LB films were transferred into 24-well plates containing 1× phosphate buffered saline (PBS) solution (Mediatech), without exposing surfaces to air, as they rearrange to form multilayers (Hansma et al., Method. Cell Biol., 2002; 69:163-193). After equilibrating for 5-10 minutes, PBS was exchanged with 1 ml of MCDB-131 basal media (Sigma) supplemented with 0.1% bovine serum albumin (BSA) (Sigma) and antibiotics (Sigma) (2.5 μg/ml gentamicin, 2.5 μg/ml amphotericin B, 50 U/ml penicillin, and 50 μg/ml streptomycin), referred to as 0.1% BSA media. Surfaces were equilibrated at 37° C., 5% CO2 for 30-60 minutes before adding the cells. Human fibronectin-coated round coverslips (FN) 22 mm in diameter (BD Biosciences) were put into 12-well plates and 2 ml of 0.1% BSA media was added to each well. Surfaces were equilibrated for 30-60 minutes at 37° C., 5% CO2.
Cell culture: Human umbilical vein endothelial cells, HUVECs, (Cambrex Corporation) were cultured in MCDB-131 containing 20% fetal bovine serum (FBS) (Atlas Biologicals) at 37° C., 5% CO2. Other nutrients and antibiotics supplementing the media were added based on an optimal HUVEC proliferation study (Terramani et al., In Vitro Cell Dev. Biol.—Animal, 2000; 36:125-132). Media was changed in the culture flasks every other day. Cells used for adhesion and imaging studies were in passages 3-4.
Cell adhesion experiments: After cells became 90% confluent they were washed with PBS, trypsinized with 0.25% Trypsin-EDTA (Cambrex Corporation), neutralized with MCDB-131 with 2% FBS, and spun at 1000 rpm for 10 minutes. The supernatant was removed and the cell pellet was resuspended in 0.1% BSA media. Cells were counted with a hemocytometer and seeded onto LB and FN surfaces at a density of 497 cells/mm^2. Surfaces were incubated with cells in 0.1% BSA media at 37° C., 5% CO2, for 1, 4, 12, 24, 48, and 72 hours. Cell adhesion was quantified using the CyQuant Cell Proliferation Assay Kit, with a dye that binds to cellular nucleic acids, following the manufacturer's protocol (Molecular Probes). A calibration standard curve was created for each experiment. The plates were read on a SpectraMAX GeminiXS (Molecular Devices).

(C16)2-Glu-C2-KSSPHSRNSGSGSGSGSGRGDSP ({(C16)2-Glu-C2}-KSSPHSRNSGSGSGSGSGRGDSP; not fully specified; reading uncertain) [PR_b]
reduction in cell adhesion compared to adhesion of non-blocked cells (integrin α5β1; anti-α5β1 antibody 20 μg/ml, HUVECs 249 cells/mm^2): 77.55±1.50% | Integrin mediating HUVEC adhesion to the surface (integrin α5β1; antibody blocking): α5β1-mediated; also recorded: specific for α5β1 integrins | HUVEC adhesion compared with FN, overall (HUVECs [1]; 1, 4 and 12 hours): outperform the positive control fibronectin at all times; also recorded: better than FN at all times; also recorded: statistically better than both Pr_f and the control FN | HUVEC adhesion compared with Pr_c (HUVECs [1]; 1, 4 and 12 hours): significantly better than Pr_c at all times except 1 hour | HUVEC adhesion compared with Pr_d (HUVECs [1]; 1, 4 and 12 hours): better than Pr_d at all times except 4 hours | HUVEC adhesion compared with Pr_f (HUVECs [1]; 1, 4 and 12 hours): statistically better than both Pr_f and the control FN; also recorded: much better | HUVEC adhesion level (description) (HUVECs [1]; 1, 4 and 12 hours): excellent adhesion at all times; also recorded: highest level of adhesion | HUVEC adhesion compared with Pr_e (HUVECs [1]; 1 and 4 hours): no statistical difference | HUVEC adhesion compared with Pr_e (HUVECs [1]; 12 hours): outperforms Pr_e; also recorded: better than Pr_e | Maintenance / decay of HUVEC adhesion over time (HUVECs [1]; up to 12 hours): most consistent adhesion over 12 hours; also recorded: smallest amount of decay over 12 hours; also recorded: least drop-off between 4 and 12 hours; also recorded: least amount of decay | Fibronectin (ECM) production by adhered HUVECs (HUVECs [2]): good fibronectin production | HUVEC adhesion compared to FN (HUVECs [3]; 1-24 hours): higher adhesion than FN | Ability of substrate to sustain HUVEC adhesion over time (HUVECs [3]; 1-72 hours): effectively adhered | HUVEC adhesion compared to the other peptide surfaces (HUVECs [3]; 1-72 hours): most promising sequence; also recorded: outperformed all other peptide substrates; also recorded: outperforms all other peptide surfaces | HUVEC adhesion compared to FN (HUVECs [3]; 48-72 hours): similar; also recorded: equivalent
